Measurements published in patent publication US20160139123A1, “Shear Wave Imaging Method and Installation for Collecting Information on a Soft Solid” (INSTITUT NATIONAL DE LA SANTE ET DE LA RECHERCHE MEDICALE …, priority 2013, published 2016).

System: naive CD4 T cells
Assay: Differentiation induction of naive CD4 T cells (DP8α induction)
Format: cell-based, human
Conditions: for effect on the frequency of DP8α cells: short chain fatty acid added to the induction culture
Description: Naive CD4 T cells are obtained from PBMC or PBL using the EasySep negative selection kit for naive CD4 T cells ([…] technologies).
Monocytes are isolated from PBMC using the CD14 microbeads positive selection kit of Miltenyi.
Immature dendritic cells (iDC) are prepared from monocytes (CD14+) cultured for 3 days with IL-4 (200 IU/ml) and GM-CSF (1000 IU/ml). Said cells are also called mo-iDC (monocyte-derived immature dendritic cells).
Immature DC are co-cultured for a night with thawed F. prausnitzii bacteria at 1:1 ratio in the presence or not of butyrate. The iDC are then added to naive CD4 cells for 5 days in the presence of IL-2.
Alternatively, butyrate is added later, at the same time as naive CD4 T cell.
DP8α induction is measured by a labeling with CD3-PE (phycoerythrin), CD4-FITC, CD8-APC (allophycocyanin) antibodies. The results are compared with those obtained with unstimulated CD4 T cells, CD4 T cells stimulated by iDC alone and CD4 T cells stimulated by iDC loaded with E. coli.

Structure (SMILES)	effect on the frequency of DP8α cells	fraction of naive CD4 T cells that acquire the DP8α phenotype (mean) (butyrate 0.145 mM added to iDC loaded with F. prausnitzii) [%]
CC(=O)O [acetate]	no or few effect	–
CCCC(=O)O [butyrate]	–	6
CCC(=O)O [propionate]	no or few effect	–
